This note sets out measurements from patent US20150353626A1, “APOLIPOPROTEIN A-I DERIVED PEPTIDES FOR TREATMENT OF HYPERGLYCAEMIA” (priority 2013, published 2015).

Type in all cases: cell-based
The test system of assay [1] is GLUT4. Nature of the assay: GLUT4 translocation to plasma membrane in primary FDB muscle fibers (HA immunofluorescence, ex vivo). The note with it: FDB fibers of HA-GLUT4-GFP mouse, 60 minutes, insulin 100 nmol/l, FIGS. 1d/7d, 4c/9a. The method, then:
To support the glucose uptake observations described in Example 2, the ability of rHDL and the 190-243 polypeptide fragment (SEQ ID NO:1) to increase the amount of GLUT4 in the plasma membrane was assessed by immunofluorescence microscopy of intact primary skeletal flexor digitorum brevis (FDB) muscle fibers, isolated from a transgenic mouse model with muscle-specific HA-GLUT4-GFP expression (Lizunov et al. (2012) Am J Physiol Endocrinol Metab 302: E950-960). The HA epitope present on the first exofacial loop of the HA-GLUT4-GFP construct allows detection of GLUT4 inserted into the plasma membrane. Intact FDB fibers were incubated ex vivo with rHDL followed by fixation and HA antibody labeling of non-permeabilized cells as described below.
Two to five transgenic mice (C57/Bl6; 10-14 weeks) with muscle specific HA-GLUT4-GFP expression (gift from S. Cushman) (Lizunov et al. (2012) Am J Physiol Endocrinol Metab 302: E950-960), were used for each condition. The animals were euthanized and flexor digitorum brevis (FDB) muscles dissected out and incubated with oxygenated Krebs-Henseleit carbonate Hepes (KRBH) buffer (6 mmol/l KCl, 1 mmol/l Na2HPO4, 0.2 mmol/l NaHPO4, 1.4 mmol/l MgSO4, 1 mmol/l CaCl2, 128 mmol/l NaCl, 10 mmol/l HEPES pH 7.4) with 0.5% (w/v) bovine serum albumin. […]

Assay [2] deals with rat adipocytes. The experiment in a line: Glucose uptake in isolated rat adipocytes. The note with it: insulin 100 nmol/l, 190-243 fragment 30 μg/ml, FIG. 9b. The method, then: Adipose cells were prepared as previously described (Rodbell (1964) J Biol Chem. 239: 375-80). In brief, epidydymal fat pads were minced and digested in Krebs-Ringer-bicarbonate-HEPES (KRBH) buffer, pH 7.4, containing 10 mM sodium bicarbonate, 30 mM HEPES, 200 nM adenosine, 1% bovine serum albumin (BSA) with 1 mg/ml collagenase. After digestion, the cells were filtered through nylon mesh (250 μm) and washed with KRBH-buffer.
Isolated rat adipocytes were treated for 60 min with insulin (100 nmol/l), 190-243 polypeptide fragment (having the amino acid sequence consisting of SEQ ID NO:1) (30 μg/ml) or 1-243 human apoA-I protein (150 μg/ml) followed by glucose uptake measurement by addition of UC14 tracer glucose (Perkin Elmer) (30 min). The uptake was terminated by centrifugation through dinonyl phtalate oil. Incubation with Cytochalasin B was used to subtract unspecific background binding. Amount of glucose was detected as count radioactivity measured by Beta CounterThe amount of glucose transported was measured using an isotope labeled UC14-assay.

Assay [3] has as its system Akt. Nature of the assay: Western blot for phosphorylated Akt in L6 myotube lysates. The following applies: L6 myotubes, 60 minutes. The method, then:
Prior to stimulation or treatment cultured myoblast cells were serum starved for 4 hours in serum-free α-MEM and all subsequent treatments, including insulin or phenformin as positive controls (Sigma), were performed in serum free a-MEM. After treatments, cells were washed with ice cold PBS buffer and lysed on ice using a non-denaturing lysis buffer (1% Triton X-100, 50 mmol/l Tris, 150 mmol/l NaCl, pH 8.0) containing protease and phosphatase inhibitors (Roche). Lysates were centrifuged at 16,000×g, 20 minutes at 4° C. and BCA protein assay (Pierce) was performed on supernatants. Equal protein amounts were separated by SDS-PAGE and transferred to nitrocellulose membranes. pAMPK, AMPK, pACC, pAkt, Akt and tubulin were used for immunodetection with IRDye 800CW and 680RD secondary antibodies (LI-COR). Blots were imaged using the Odyssey Fc system and quantified using Image studio v2.0 software.
To dissect the effect of discoidal rHDL on a non-insulin dependent signaling pathway, we conducted western blotting using lysates from L6 myotubes incubated with rHDL. […] Phenformin was used as a positive control, inducing a 1.98±0.33-fold (p=≦0.05) and 2.7±0.74-fold (p=≦0.05) elevation of phosphorylated AMPK and ACC, respectively, at a concentration of 0.4 mmol/l. […] For clarity 1 nmol/l insulin (n=2) and 100 nmol/l insulin (n=3) (51±12.5-fold; p=≦0.01) was plotted in FIG. 3e. Representative immunoblots of those quantified for FIGS. 3a, c and f are given in FIGS. 3b, d and e, respectively.
The effect of the peptide fragment 190-243 of human Apo A-I (SEQ ID NO: 1) on a non-insulin dependent signaling pathway, was tested using lysates from L6 myotubes as described above for rHDL. Myotubes were serum starved for 4 hours then treated for 60 minutes with 2, 10 or 20 μmol/l of 190-243 peptide, 1 mmol/l phenformin, 100 nmol/l insulin, or control (C) followed by western blot analysis for phosphorylated AMPK (AMP-activated protein kinase) or phosphorylated Akt. Tubulin was used as loading control. Blots shown are representative of three independent experiments.
Background: Immunoblotting shows a protein as a band on a membrane.

As to “190-243 polypeptide fragment: polypeptide fragment consisting of amino acids 190-243 of the full-length human apoA-I protein, C-terminal domain, 54-mer, recombinant (AEYHAKATEHLSTLSEKAKPALEDLRQGLLPVLESFKVSFLSALEEYTKKLNTQ; listed as Homo Sapiens)”, in assay [1], the “GLUT4 in the sarcolemma plasma membrane (HA signal, in words)” value is “greater membrane levels of GLUT4 protein”. The “glucose uptake in adipocytes (in words)” value in assay [2] is “significantly induced”. In addition, the “Akt phosphorylation (in words)” value in assay [3] (2, 10 or 20 μmol/l 190-243 peptide, FIG. 8c) is “unaffected”.

For insulin, in assay [1], the “GLUT4 in the sarcolemma plasma membrane (HA signal, in words)” value is recorded as “induced translocation of GLUT4 into the sarcolemma plasma membrane”. Moreover, in assay [2], the “glucose uptake in adipocytes (in words)” value is “significantly induced”. Moreover, the Akt phosphorylation in assay [3] (insulin 100 nmol/l) is reported as 51±12.5 fold; in assay [3] (rHDL 700 μg/ml apoA-I, insulin 1 nmol/l, ± S.D.) it was 2.06±0.47 fold.
